Results: patent publication US4738929A, “Purified culture of streptomyces galanosa” (Warner-Lambert Company, priority 1986, dated 1988)
Values after ≈ are worked out from the molar mass of the structure shown. Counter-ions that a name gives are not always drawn.

What was measured:
[1] = test system: Pseudomonas aeruginosa; assay: Microtiter dilution MIC, Pseudomonas aeruginosa; assay type: cell-based; settings: Mueller-Hinton broth, 37° C., 16-24 hours, read-out: Minimal Inhibitory Concentration
Protocol: (§1) The compounds of the present invention and their pharmaceutically acceptable salts are useful as antimicrobial agents. The antimicrobial activity of the representative examples of compounds in accordance with the present invention against five species of gram-negative bacteria, seven species of gram-positive bacteria, four species of yeast, and two species of fungi were determined using the microtiter dilution technique. This method is described by T. B. Conrath, "Handbook of Microtiter Procedures," Dynatech Corp., Cambridge, Mass., USA (1972); and T. L. Gavan et al, "Microdilution Test Procedures," in Manual of Clinical Microbiology, E. H. Lennette, Ed., American Soc. for Microbiol., Washington, D.C., U.S.A. (1980).
(§2) Each agent is suspended in a nonaqueous solvent for several minutes to sterilize the compound or, if the compound is completely soluble in water, the aqueous solution is sterilized by passage through a 0.2-0.45 micrometer membrane filter.
(§3) Each well of a sterile 96-well microdilution tray is filled under aseptic conditions with 0.1 ml of Mueller-Hinton broth (for antibacterial tests), or yeast extract-peptone-dextrose or buffered supplemented yeast nitrogen base (for tests with yeasts or fungi).
(§4) […] of the test compound solution is added to each of the eight wells in the first row of the tray. A microdilutor apparatus is used to simultaneously mix the contents of these wells and to transfer aliquots to each succeeding row of cells to obtain a range of serially diluted solutions. The last row of wells is untreated and serves as a control.
(§5) Each well containing broth and test compound is inoculated with about ten microliters of inoculum of the test microorganism. One well in the last row of wells (which is free of test compound) is not inoculated and is used as a sterility control The trays are sealed and incubated at 37° C. for 16-24 hours (for bacteria) or at 28° C. for 36-48 hours (yeasts or fungi). During incubation, the inoculated medium is shaken at 100-140 rpm to increase contact between the microorganism cells and test compounds.
(§6) After the incubation period, each plate is evaluated by determining the lowest concentration of test compound required to inhibit the growth of the microorganism and recorded as a minimal inhibitory concentration (MIC).

[2] = test system: Mucor paraciticus; assay: Microtiter dilution MIC, Mucor paraciticus; assay type: cell-based; settings: yeasts or fungi, 28° C., 36-48 hours, read-out: Minimal Inhibitory Concentration
Protocol: as §1, §2, §3, §4, §5, §6

[3] = test system: Micrococcus luteus; assay: Microtiter dilution MIC, Micrococcus luteus; assay type: cell-based; settings: Mueller-Hinton broth, 37° C., 16-24 hours, read-out: Minimal Inhibitory Concentration
Protocol: as §1, §2, §3, §4, §5, §6

[4] = test system: Saccharomyces cerevisiae; assay: Microtiter dilution MIC, Saccharomyces cerevisiae; assay type: cell-based; settings: yeasts or fungi, 28° C., 36-48 hours, read-out: Minimal Inhibitory Concentration
Protocol: as §1, §2, §3, §4, §5, §6

[5] = test system: P388 leukemia cell line; assay: In vivo antineoplastic activity against transplanted P388 leukemia in mice; settings: Days 1-9
Protocol: The in vivo antineoplastic activity of representative compounds of the present invention against the transplanted P388 leukemia cell line in mice was determined in accordance with the protocol given in Geran et al, cited above. The mice were infected intraperitoneally on Day 0 and then administered the indicated doses of the test compounds on Days 1-9.

[6] = test system: Salmonella typhimurium; assay: Microtiter dilution MIC, Salmonella typhimurium; assay type: cell-based; settings: Salmonella enterica, Mueller-Hinton broth, 37° C., 16-24 hours, read-out: Minimal Inhibitory Concentration
Protocol: as §1, §2, §3, §4, §5, §6

[7] = test system: Bacillus cereus; assay: Microtiter dilution MIC, Bacillus cereus; assay type: cell-based; settings: Mueller-Hinton broth, 37° C., 16-24 hours, read-out: Minimal Inhibitory Concentration
Protocol: as §1, §2, §3, §4, §5, §6

[8] = test system: Rhizopus japonicus; assay: Microtiter dilution MIC, Rhizopus japonicus; assay type: cell-based; settings: yeasts or fungi, 28° C., 36-48 hours, read-out: Minimal Inhibitory Concentration
Protocol: as §1, §2, §3, §4, §5, §6

[9] = test system: Streptococcus faecalis; assay: Microtiter dilution MIC, Streptococcus faecalis; assay type: cell-based; settings: Enterococcus faecalis; Mueller-Hinton broth, 37° C., 16-24 hours; read-out: Minimal Inhibitory Concentration
Protocol: as §1, §2, §3, §4, §5, §6

[10] = test system: Staphylococcus aureus; assay: Microtiter dilution MIC, Staphylococcus aureus; assay type: cell-based; settings: Mueller-Hinton broth, 37° C., 16-24 hours, read-out: Minimal Inhibitory Concentration
Protocol: as §1, §2, §3, §4, §5, §6

[11] = test system: Rhodotorula aurantiaca; assay: Microtiter dilution MIC, Rhodotorula aurantiaca; assay type: cell-based; settings: Buckleyzyma aurantiaca; yeasts or fungi, 28° C., 36-48 hours; read-out: Minimal Inhibitory Concentration
Protocol: as §1, §2, §3, §4, §5, §6

[12] = test system: Branhamella catarrhalis; assay: Microtiter dilution MIC, Branhamella catarrhalis; assay type: cell-based; settings: Moraxella catarrhalis; Mueller-Hinton broth, 37° C., 16-24 hours; read-out: Minimal Inhibitory Concentration
Protocol: as §1, §2, §3, §4, §5, §6

[13] = test system: Bacillus megaterium; assay: Microtiter dilution MIC, Bacillus megaterium; assay type: cell-based; settings: Priestia megaterium; Mueller-Hinton broth, 37° C., 16-24 hours; read-out: Minimal Inhibitory Concentration
Protocol: as §1, §2, §3, §4, §5, §6

[14] = test system: L1210 murine leukemia cell line; assay: Cytotoxic activity against L1210 murine leukemia in vitro; assay type: cell-based; settings: Mus musculus, 50% inhibition of growth, duplicate tests
Protocol: The antineoplastic activities of representative compounds of the present invention against the L1210 murine leukemia cell line in vitro were determined using the methods detailed by R. I. Geran et al, "Protocols for Screening Chemical Agents and Natural Products Against Animal Tumors and Other Biological Systems," 3rd Edition, Cancer Chemotherapy Reports, Part 3, Vol. 3, pages 1-87 (1972) which is incorporated herein by reference.
The IC50 values are the concentration of compound required to produce 50% inhibition of growth of the cell line.

[15] = test system: Escherichia coli (PD-04863); assay: Microtiter dilution MIC, Escherichia coli (PD-04863); assay type: cell-based; settings: Mueller-Hinton broth, 37° C., 16-24 hours, read-out: Minimal Inhibitory Concentration
Protocol: as §1, §2, §3, §4, §5, §6

[16] = test system: Schizosaccharomyces pombe; assay: Microtiter dilution MIC, Schizosaccharomyces pombe; assay type: cell-based; settings: yeasts or fungi, 28° C., 36-48 hours, read-out: Minimal Inhibitory Concentration
Protocol: as §1, §2, §3, §4, §5, §6

[17] = test system: Streptococcus pneumoniae; assay: Microtiter dilution MIC, Streptococcus pneumoniae; assay type: cell-based; settings: Mueller-Hinton broth, 37° C., 16-24 hours, read-out: Minimal Inhibitory Concentration
Protocol: as §1, §2, §3, §4, §5, §6

[18] = test system: Streptococcus pyogenes; assay: Microtiter dilution MIC, Streptococcus pyogenes; assay type: cell-based; settings: Mueller-Hinton broth, 37° C., 16-24 hours, read-out: Minimal Inhibitory Concentration
Protocol: as §1, §2, §3, §4, §5, §6

[19] = test system: Torulopsis albida; assay: Microtiter dilution MIC, Torulopsis albida; assay type: cell-based; settings: Naganishia albida; yeasts or fungi, 28° C., 36-48 hours; read-out: Minimal Inhibitory Concentration
Protocol: as §1, §2, §3, §4, §5, §6

[20] = test system: Alcaligenes viscolactis; assay: Microtiter dilution MIC, Alcaligenes viscolactis; assay type: cell-based; settings: Mueller-Hinton broth, 37° C., 16-24 hours, read-out: Minimal Inhibitory Concentration
Protocol: as §1, §2, §3, §4, §5, §6

Structure (SMILES) | MIC [1] [µg/mL] | MIC [2] [µg/mL] | MIC [3] [µg/mL] | MIC [4] [µg/mL] | % T/C ([5]; 25 mg/kg/injection) | MIC [6] [µg/mL] | MIC [7] [µg/mL] | MIC [8] [µg/mL] | MIC [9] [µg/mL] | MIC [10] [µg/mL] | MIC [11] [µg/mL] | MIC [12] [µg/mL] | MIC [13] [µg/mL] | IC50 [14] [µg/mL] | MIC [15] [µg/mL] | MIC [16] [µg/mL] | MIC [17] [µg/mL] | MIC [18] [µg/mL] | MIC [19] [µg/mL] | MIC [20] [µg/mL] | further results
Cc1c(O)c(C=NCCN(C)C)c2nc3c(O)ccc(C(=O)NCCN(C)C)c3nc2c1O [Example 7, N-[2-(dimethylamino)ethyl]-6-[[[2-(dimethylamino)ethyl]imino]methyl]-4,7,9-trihydroxy-8-methyl-1-phenazinecarboxamide] | < 1000 | 333 (≈ 733 µM) | 37 (≈ 81.4 µM) | 1000 (≈ 2200 µM) | 126% | 333 (≈ 733 µM) | 111 (≈ 244 µM) | 333 (≈ 733 µM) | 1000 (≈ 2200 µM) | 333 (≈ 733 µM) | 111 (≈ 244 µM) | 12.3 (≈ 27.1 µM) | 333 (≈ 733 µM) | 0.63 (≈ 1.39 µM) | 111 (≈ 244 µM) | 111 (≈ 244 µM) | 37 (≈ 81.4 µM) | 111 (≈ 244 µM) | 1000 (≈ 2200 µM) | 4.1 (≈ 9.02 µM) | % T/C ([5]; 50 mg/kg/injection): 140%; % T/C ([5]; 100 mg/kg/injection): 152%; % T/C ([5]; 200 mg/kg/injection): 166%
COC(=O)c1ccc(O)c2nc3c(C=O)c(O)c(C)c(O)c3nc12 [Example 3, 6-formyl-4,7,9-trihydroxy-8-methyl-1-phenazinecarboxylic acid, methyl ester] | > 1000 | 1000 (≈ 3050 µM) | 111 (≈ 338 µM) | > 1000 | Toxic | 1000 (≈ 3050 µM) | 333 (≈ 1010 µM) | > 1000 | 1000 (≈ 3050 µM) | > 1000 | > 1000 | 111 (≈ 338 µM) | 1000 (≈ 3050 µM) | 0.17 (≈ 0.518 µM) | > 1000 | > 1000 | < 0.46 | 111 (≈ 338 µM) | 1000 (≈ 3050 µM) | 333 (≈ 1010 µM) | % T/C ([5]; 3.12 mg/kg/injection): 119%; % T/C ([5]; 6.25 mg/kg/injection): 130%; % T/C ([5]; 12.5 mg/kg/injection): 149%
Cc1c(O)c(C=O)c2nc3c(O)ccc(C(=O)NCCN(C)C)c3nc2c1O [Example 9, N-[2-(dimethylamino)ethyl]-6-formyl-4,7,9-trihydroxy-8-methyl-1-phenazinecarboxamide, methanesulfonate salt] | – | – | – | – | – | – | – | – | – | – | – | – | – | – | – | – | – | – | – | – | % T/C ([5]; 5 mg/kg/injection): 139%; % T/C ([5]; 10 mg/kg/injection): 143%; % T/C ([5]; 20 mg/kg/injection): 144%; % T/C ([5]; 40 mg/kg/injection): 170%; % T/C ([5]; 80 mg/kg/injection): 219%
COC(=O)c1ccc(O)c2nc3c(C=NCCN(C)C)c(O)c(C)c(O)c3nc12 [Example 5, 6-[[[2-(dimethylamino)ethyl]imino]methyl]-4,7,9-trihydroxy-8-methyl-1-phenazinecarboxylic acid, methyl ester] | 111 (≈ 279 µM) | 37 (≈ 92.9 µM) | 4.1 (≈ 10.3 µM) | 111 (≈ 279 µM) | – | 12.3 (≈ 30.9 µM) | 1.4 (≈ 3.51 µM) | 111 (≈ 279 µM) | 12.3 (≈ 30.9 µM) | 12.3 (≈ 30.9 µM) | 111 (≈ 279 µM) | 1.4 (≈ 3.51 µM) | 4.1 (≈ 10.3 µM) | 0.17 (≈ 0.427 µM) | 12.3 (≈ 30.9 µM) | 37 (≈ 92.9 µM) | < 0.46 | 4.1 (≈ 10.3 µM) | 333 (≈ 836 µM) | 4.1 (≈ 10.3 µM) | % T/C ([5]; 37.5 mg/kg/injection): 104%; % T/C ([5]; 75 mg/kg/injection): 113%; % T/C ([5]; 150 mg/kg/injection): 137%
